{"source": "patent US20030032674A1", "about": "“Use of unsaturated fatty acids to treat severe inflammatory diseases” (priority 2001, published 2003)", "key": {"TLR2": {"molecular_target": "T1, TLR2 (Homo sapiens, UniProt O60603)", "T1 construct": "expressed in transfected cells; host or cells: 293T (stated not to express TLR2)", "T1 sequence (O60603 21-784, species assumed)": "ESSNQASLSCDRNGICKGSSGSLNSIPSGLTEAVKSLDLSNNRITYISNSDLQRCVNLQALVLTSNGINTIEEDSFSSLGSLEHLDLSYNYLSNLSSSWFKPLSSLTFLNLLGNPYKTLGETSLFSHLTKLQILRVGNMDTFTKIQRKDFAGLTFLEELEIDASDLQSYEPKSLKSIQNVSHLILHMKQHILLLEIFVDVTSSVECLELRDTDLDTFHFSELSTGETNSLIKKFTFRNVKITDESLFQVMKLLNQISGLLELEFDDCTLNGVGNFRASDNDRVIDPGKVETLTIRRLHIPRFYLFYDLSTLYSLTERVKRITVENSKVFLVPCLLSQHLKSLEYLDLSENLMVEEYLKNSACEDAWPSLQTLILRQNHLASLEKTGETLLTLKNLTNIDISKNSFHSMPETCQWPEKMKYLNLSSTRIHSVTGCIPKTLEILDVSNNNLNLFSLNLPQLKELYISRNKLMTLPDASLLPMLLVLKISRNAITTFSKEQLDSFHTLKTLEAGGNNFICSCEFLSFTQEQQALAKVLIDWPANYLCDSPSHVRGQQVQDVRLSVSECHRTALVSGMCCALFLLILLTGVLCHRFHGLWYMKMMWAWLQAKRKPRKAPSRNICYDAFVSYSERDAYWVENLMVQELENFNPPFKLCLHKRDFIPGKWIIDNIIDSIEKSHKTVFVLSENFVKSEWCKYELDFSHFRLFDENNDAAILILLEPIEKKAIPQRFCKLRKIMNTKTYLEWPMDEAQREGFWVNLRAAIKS", "assay": "NFκB reporter in TLR2-transfected 293T cells", "assay_type": "cell-based", "details": "PamCAG 100 ng/ml", "excerpt": "Plasmids and DNA Constructs—All plasmids and constructs were obtained or made as reported in either S. H. Rhee and D. Hwang, “Murine TOLL-like receptor 4 confers lipopolysaccaride responsiveness as determined by activation of NFκB and expression of the inducible cyclooxygenase,” Journal of Biological Chemistry, vol. 275, pp. 34035-34040 (2000); and J. Y. Lee et al., “Saturated fatty acids, but not unsaturated fatty acids, induce the expression of cyclooxygenase-2 mediated through TOLL-like receptor 4,” Journal of Biological Chemistry, vol. 276, pp. 16683-16689 (2001). Briefly, the luciferase reporter plasmids (pGL2) containing the promoter region of the murine COX-2 gene (−3201/+93 or −1017/+93) were provided by David Dewitt (Michigan State University, East Lansing, Mich.). To prepare the wild-type COX-2 promoter fragment, polymerase chain reaction (PCR) was performed with the primers named Kpn-COX2-For and Hind-COX2-Rev using the murine COX-2 (−1017/+93) luciferase reporter plasmid as a template. To prepare the mutant COX-2 promoter fragment containing mutated NFκB site, Kpn-COX2-Fmut and Hind-COX2-Rev were used as primers. […]\nAcylation by saturated fatty acids of bacterial lipopeptides is also required for the activation of TLR2. […] After 18 hr, luciferase activities were determined. […]"}, "[1]": {"test_system": "constitutively active human TLR4 (CD4-TLR4)", "assay": "NFκB reporter in 293T cells transfected with constitutively active TLR4", "assay_type": "cell-based", "excerpt": "Plasmids and DNA Constructs—All plasmids and constructs were obtained or made as reported in either S. H. Rhee and D. Hwang, “Murine TOLL-like receptor 4 confers lipopolysaccaride responsiveness as determined by activation of NFκB and expression of the inducible cyclooxygenase,” Journal of Biological Chemistry, vol. 275, pp. 34035-34040 (2000); and J. Y. Lee et al., “Saturated fatty acids, but not unsaturated fatty acids, induce the expression of cyclooxygenase-2 mediated through TOLL-like receptor 4,” Journal of Biological Chemistry, vol. 276, pp. 16683-16689 (2001). Briefly, the luciferase reporter plasmids (pGL2) containing the promoter region of the murine COX-2 gene (−3201/+93 or −1017/+93) were provided by David Dewitt (Michigan State University, East Lansing, Mich.). To prepare the wild-type COX-2 promoter fragment, polymerase chain reaction (PCR) was performed with the primers named Kpn-COX2-For and Hind-COX2-Rev using the murine COX-2 (−1017/+93) luciferase reporter plasmid as a template. To prepare the mutant COX-2 promoter fragment containing mutated NFκB site, Kpn-COX2-Fmut and Hind-COX2-Rev were used as primers. Each PCR fragment was inserted into the KpnI and HindIII sites of pGL2 to generate the wild-type or mutant COX-2 (−410/+86) luciferase reporter constructs, respectively. Sequences for wild-type NFκB site and the primers were used as reported elsewhere. […]"}}}
{"smiles": "CCCCCCCCCCCC(=O)O", "note": "[lauric acid]", "values": [{"measurement": "effect on NFκB activation induced by PamCAG", "setting": "TLR2", "value": "potentiated"}, {"measurement": "effect on CD4-TLR4-induced NFκB activation", "setting": "[1]", "value": "potentiated"}]}
